Data published in patent US20230372498A1, “PLK1 SELECTIVE DEGRADATION INDUCING COMPOUND” (UPPTHERA, priority 2020, published 2023).

Target: T1, PLK1 (Homo sapiens, UniProt P53350)
T1 construct: endogenous in cells; host or cells: HeLa
Assay: PLK1 protein degradation in HeLa cells, Western blotting (PLK1/GAPDH ratio)
Format: cell-based
Details: 6 hours compound incubation; for DC50: measured only if the grade of Dmax is A or B; for Dmax: thymidine block and release, 10 points three-fold from 3 μM, PLK1 to GAPDH ratio, read-out: Dmax
Outline: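 Thymidine-synchronised HeLa cells (2 mM, 24 h) released 4 h into complete medium, then treated 6 h with compound in 10-point 3-fold dilutions from 3 μM. RIPA lysates (15 μg protein) run on SDS-PAGE; PLK1 Western blot normalised to GAPDH.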

T1 sequence (P53350 whole entry): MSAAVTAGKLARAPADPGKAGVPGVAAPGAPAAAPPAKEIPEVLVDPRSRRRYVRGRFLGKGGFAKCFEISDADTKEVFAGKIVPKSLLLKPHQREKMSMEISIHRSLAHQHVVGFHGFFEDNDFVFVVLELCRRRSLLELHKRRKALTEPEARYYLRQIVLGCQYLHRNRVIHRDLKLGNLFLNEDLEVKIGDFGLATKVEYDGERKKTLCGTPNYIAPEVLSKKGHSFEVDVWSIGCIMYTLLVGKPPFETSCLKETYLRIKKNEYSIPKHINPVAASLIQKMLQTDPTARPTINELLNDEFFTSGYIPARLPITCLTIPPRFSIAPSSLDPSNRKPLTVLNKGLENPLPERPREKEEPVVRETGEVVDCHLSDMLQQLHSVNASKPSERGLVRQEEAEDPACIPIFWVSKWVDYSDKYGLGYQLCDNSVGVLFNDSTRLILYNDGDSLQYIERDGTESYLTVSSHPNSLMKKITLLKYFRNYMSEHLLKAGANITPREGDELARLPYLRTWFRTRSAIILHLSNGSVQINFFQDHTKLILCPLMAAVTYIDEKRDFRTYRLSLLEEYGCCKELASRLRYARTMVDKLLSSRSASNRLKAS

Row | SMILES | DC50 | Dmax
1 | COc1cc(C(=O)NC2CCN(C(=O)COCCOCCOCCOCCNc3cccc4c3C(=O)N(C3CCC(=O)NC3=O)C4=O)CC2)c(F)cc1Nc1ncc2c(n1)N(C1CCCC1)CC(F)(F)C(=O)N2C (stereo not drawn) [Compound 34, 4-((9-cyclopentyl-7,7-difluoro-5-methyl-6-oxo-6,7,8,9-tetrahydro-5H-pyrimido[4,5-b][1,4]diazepin-2-yl)amino)-N-(1-(14-((2-(2,6-dioxopiperidin-3-yl)-1,3-dioxoisoindolin-4-yl)amino)-3,6,9,12-tetraoxatetradecanoyl)piperidin-4-yl)-2-fluoro-5-methoxybenzamide] | ≤ 50 nM | ≥ 80%
2 | COc1cc(C(=O)NC2CCN(CC(=O)NCCOCCNc3cccc4c3C(=O)N(C3CCC(=O)NC3=O)C4=O)CC2)c(F)cc1Nc1ncc2c(n1)N(C1CCCC1)CC(F)(F)C(=O)N2C (stereo not drawn) [Compound 35, 4-((9-cyclopentyl-7,7-difluoro-5-methyl-6-oxo-6,7,8,9-tetrahydro-5H-pyrimido[4,5-b][1,4]diazepin-2-yl)amino)-N-(1-(2-((2-(2-((2-(2,6-dioxopiperidin-3-yl)-1,3-dioxoisoindolin-4-yl)amino)ethoxy)ethyl)amino)-2-oxoethyl)piperidin-4-yl)-2-fluoro-5-methoxybenzamide] | ≤ 50 nM | ≥ 80%
3 | COc1cc(C(=O)NC2CCN(CC(=O)NCCOCCOCCOCCNc3cccc4c3C(=O)N(C3CCC(=O)NC3=O)C4=O)CC2)c(F)cc1Nc1ncc2c(n1)N(C1CCCC1)CC(F)(F)C(=O)N2C (stereo not drawn) [Compound 36, 4-((9-cyclopentyl-7,7-difluoro-5-methyl-6-oxo-6,7,8,9-tetrahydro-5H-pyrimido[4,5-b][1,4]diazepin-2-yl)amino)-N-(1-(14-((2-(2,6-dioxopiperidin-3-yl)-1,3-dioxoisoindolin-4-yl)amino)-2-oxo-6,9,12-trioxa-3-azatetradecyl)piperidin-4-yl)-2-fluoro-5-methoxybenzamide] | ≤ 50 nM | ≥ 80%
4 | COc1cc(C(=O)NC2CCN(CCCC(=O)Nc3cccc4c3C(=O)N(C3CCC(=O)NC3=O)C4=O)CC2)c(F)cc1Nc1ncc2c(n1)N(C1CCCC1)CC(F)(F)C(=O)N2C (stereo not drawn) [Compound 37, 4-((9-cyclopentyl-7,7-difluoro-5-methyl-6-oxo-6,7,8,9-tetrahydro-5H-pyrimido[4,5-b][1,4]diazepin-2-yl)amino)-N-(1-(4-((2-(2,6-dioxopiperidin-3-yl)-1,3-dioxoisoindolin-4-yl)amino)-4-oxobutyl)piperidin-4-yl)-2-fluoro-5-methoxybenzamide] | ≤ 500 nM | 60 to 80%
5 | COc1cc(C(=O)NC2CCN(CCCCCCCC(=O)Nc3cccc4c3C(=O)N(C3CCC(=O)NC3=O)C4=O)CC2)c(F)cc1Nc1ncc2c(n1)N(C1CCCC1)CC(F)(F)C(=O)N2C (stereo not drawn) [Compound 38, 4-((9-cyclopentyl-7,7-difluoro-5-methyl-6-oxo-6,7,8,9-tetrahydro-5H-pyrimido[4,5-b][1,4]diazepin-2-yl)amino)-N-(1-(8-((2-(2,6-dioxopiperidin-3-yl)-1,3-dioxoisoindolin-4-yl)amino)-8-oxooctyl)piperidin-4-yl)-2-fluoro-5-methoxybenzamide] | ≤ 500 nM | 60 to 80%
6 | COc1cc(C(=O)NC2CCN(C(=O)CCCNc3cccc4c3C(=O)N(C3CCC(=O)NC3=O)C4=O)CC2)c(F)cc1Nc1ncc2c(n1)N(C1CCCC1)CC(F)(F)C(=O)N2C (stereo not drawn) [Compound 39, 4-((9-cyclopentyl-7,7-difluoro-5-methyl-6-oxo-6,7,8,9-tetrahydro-5H-pyrimido[4,5-b][1,4]diazepin-2-yl)amino)-N-(1-(4-((2-(2,6-dioxopiperidin-3-yl)-1,3-dioxoisoindolin-4-yl)amino)butanoyl)piperidin-4-yl)-2-fluoro-5-methoxybenzamide] | ≤ 50 nM | ≥ 80%
7 | COc1cc(C(=O)NC2CCN(Cc3ccc(OCCNc4cccc5c4C(=O)N(C4CCC(=O)NC4=O)C5=O)cc3)CC2)c(F)cc1Nc1ncc2c(n1)N(C1CCCC1)CC(F)(F)C(=O)N2C (stereo not drawn) [Compound 40, 4-((9-cyclopentyl-7,7-difluoro-5-methyl-6-oxo-6,7,8,9-tetrahydro-5H-pyrimido[4,5-b][1,4]diazepin-2-yl)amino)-N-(1-(4-(2-((2-(2,6-dioxopiperidin-3-yl)-1,3-dioxoisoindolin-4-yl)amino)ethoxy)benzyl)piperidin-4-yl)-2-fluoro-5-methoxybenzamide] | ≤ 500 nM | 60 to 80%
8 | COc1cc(C(=O)NC2CCN(Cc3ccc(OCCOCCOCCNc4cccc5c4C(=O)N(C4CCC(=O)NC4=O)C5=O)cc3)CC2)c(F)cc1Nc1ncc2c(n1)N(C1CCCC1)CC(F)(F)C(=O)N2C (stereo not drawn) [Compound 41, 4-((9-cyclopentyl-7,7-difluoro-5-methyl-6-oxo-6,7,8,9-tetrahydro-5H-pyrimido[4,5-b][1,4]diazepin-2-yl)amino)-N-(1-(4-(2-(2-(2-((2-(2,6-dioxopiperidin-3-yl)-1,3-dioxoisoindolin-4-yl)amino)ethoxy)ethoxy)ethoxy)benzyl)piperidin-4-yl)-2-fluoro-5-methoxybenzamide] | ≤ 50 nM | ≥ 80%
9 | COc1cc(C(=O)NC2CCN(CCc3ccc(CC(=O)Nc4cccc5c4C(=O)N(C4CCC(=O)NC4=O)C5=O)cc3)CC2)c(F)cc1Nc1ncc2c(n1)N(C1CCCC1)CC(F)(F)C(=O)N2C (stereo not drawn) [Compound 42, 4-((9-cyclopentyl-7,7-difluoro-5-methyl-6-oxo-6,7,8,9-tetrahydro-5H-pyrimido[4,5-b][1,4]diazepin-2-yl)amino)-N-(1-(4-(2-((2-(2,6-dioxopiperidin-3-yl)-1,3-dioxoisoindolin-4-yl)amino)-2-oxoethyl)phenethyl)piperidin-4-yl)-2-fluoro-5-methoxybenzamide] | > 500 nM | 60 to 80%
10 | COc1cc(C(=O)NC2CCN(CCCn3cnc(CNc4cccc5c4C(=O)N(C4CCC(=O)NC4=O)C5=O)c3)CC2)c(F)cc1Nc1ncc2c(n1)N(C1CCCC1)CC(F)(F)C(=O)N2C (stereo not drawn) [Compound 43] | ≤ 50 nM | ≥ 80%
11 | COc1cc(C(=O)NC2CCN(Cc3cn(CCOCCNc4cccc5c4C(=O)N(C4CCC(=O)NC4=O)C5=O)nn3)CC2)c(F)cc1Nc1ncc2c(n1)N(C1CCCC1)CC(F)(F)C(=O)N2C (stereo not drawn) [Compound 44, 4-((9-cyclopentyl-7,7-difluoro-5-methyl-6-oxo-6,7,8,9-tetrahydro-5H-pyrimido[4,5-b][1,4]diazepin-2-yl)amino)-N-(1-((1-(2-(2-((2-(2,6-dioxopiperidin-3-yl)-1,3-dioxoisoindolin-4-yl)amino)ethoxy)ethyl)-1H-1,2,3-triazol-4-yl)methyl)piperidin-4-yl)-2-fluoro-5-methoxybenzamide] | ≤ 50 nM | ≥ 80%
12 | COc1cc(C(=O)NC2CCN(Cc3cn(CCOCCOCCOCCNc4cccc5c4C(=O)N(C4CCC(=O)NC4=O)C5=O)nn3)CC2)c(F)cc1Nc1ncc2c(n1)N(C1CCCC1)CC(F)(F)C(=O)N2C (stereo not drawn) [Compound 45, 4-((9-cyclopentyl-7,7-difluoro-5-methyl-6-oxo-6,7,8,9-tetrahydro-5H-pyrimido[4,5-b][1,4]diazepin-2-yl)amino)-N-(1-((1-(2-(2-(2-(2-((2-(2,6-dioxopiperidin-3-yl)-1,3-dioxoisoindolin-4-yl)amino)ethoxy)ethoxy)ethoxy)ethyl)-1H-1,2,3-triazol-4-yl)methyl)piperidin-4-yl)-2-fluoro-5-methoxybenzamide] | ≤ 50 nM | ≥ 80%
13 | COc1cc(C(=O)NC2CCN(Cc3cn(CCCC(=O)Nc4cccc5c4C(=O)N(C4CCC(=O)NC4=O)C5=O)nn3)CC2)c(F)cc1Nc1ncc2c(n1)N(C1CCCC1)CC(F)(F)C(=O)N2C (stereo not drawn) [Compound 46, 4-((9-cyclopentyl-7,7-difluoro-5-methyl-6-oxo-6,7,8,9-tetrahydro-5H-pyrimido[4,5-b][1,4]diazepin-2-yl)amino)-N-(1-((1-(4-((2-(2,6-dioxopiperidin-3-yl)-1,3-dioxoisoindolin-4-yl)amino)-4-oxobutyl)-1H-1,2,3-triazol-4-yl)methyl)piperidin-4-yl)-2-fluoro-5-methoxybenzamide] |  | < 60%
14 | COc1cc(C(=O)NC2CCN(Cc3cn(CCNC(=O)CNc4cccc5c4C(=O)N(C4CCC(=O)NC4=O)C5=O)nn3)CC2)c(F)cc1Nc1ncc2c(n1)N(C1CCCC1)CC(F)(F)C(=O)N2C (stereo not drawn) [Compound 47, 4-((9-cyclopentyl-7,7-difluoro-5-methyl-6-oxo-6,7,8,9-tetrahydro-5H-pyrimido[4,5-b][1,4]diazepin-2-yl)amino)-N-(1-((1-(2-(2-((2-(2,6-dioxopiperidin-3-yl)-1,3-dioxoisoindolin-4-yl)amino)acetamido)ethyl)-1H-1,2,3-triazol-4-yl)methyl)piperidin-4-yl)-2-fluoro-5-methoxybenzamide] |  | < 60%
15 | COc1cc(C(=O)NC2CCN(C[C@@H]3C[C@@H]3CNc3cccc4c3C(=O)N(C3CCC(=O)NC3=O)C4=O)CC2)c(F)cc1Nc1ncc2c(n1)N(C1CCCC1)CC(F)(F)C(=O)N2C (stereo partly drawn) [Compound 48, 4-((9-cyclopentyl-7,7-difluoro-5-methyl-6-oxo-6,7,8,9-tetrahydro-5H-pyrimido[4,5-b][1,4]diazepin-2-yl)amino)-N-(1-(((1R,2S)-2-(((2-(2,6-dioxopiperidin-3-yl)-1,3-dioxoisoindolin-4-yl)amino)methyl)cyclopropyl)methyl)piperidin-4-yl)-2-fluoro-5-methoxybenzamide] | ≤ 500 nM | 60 to 80%
16 | COc1cc(C(=O)NC2CCN(CCOCCN(C)CCNc3cccc4c3C(=O)N(C3CCC(=O)NC3=O)C4=O)CC2)c(F)cc1Nc1ncc2c(n1)N(C1CCCC1)CC(F)(F)C(=O)N2C (stereo not drawn) [Compound 49, 4-((9-cyclopentyl-7,7-difluoro-5-methyl-6-oxo-6,7,8,9-tetrahydro-5H-pyrimido[4,5-b][1,4]diazepin-2-yl)amino)-N-(1-(2-(2-((2-((2-(2,6-dioxopiperidin-3-yl)-1,3-dioxoisoindolin-4-yl)amino)ethyl)(methyl)amino)ethoxy)ethyl)piperidin-4-yl)-2-fluoro-5-methoxybenzamide] | ≤ 500 nM | 60 to 80%
